Results reported in PubChem BioAssay AID248 (DTP/NCI, 2004).
Inconclusive results and toxic doses are left out. Rule as the data show it: active = T/C of 150% or more; inactive = T/C below 125%.

Tested on: L1210 leukemia ip in BDF1 mice, survival T/C
Assay: NCI In Vivo Anticancer Drug Screen. Data for tumor model L1210 Leukemia (intraperitoneal) in B6D2F1 (BDF1) mice
Conditions: endpoint: mean survival time, higher = longer survival
How it was run: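 Transplanted-tumor mice were given test agent; controls received vehicle only. Survival readings from the two groups were divided (treated over control).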

[1] = dose: 50.0 mg/kg/injection, schedule: Q01DX009 (ip), vehicle: saline
[2] = dose: 100.0 mg/kg/injection, schedule: Q01DX009 (ip), vehicle: saline
[3] = dose: 200.0 mg/kg/injection, schedule: Q01DX009 (ip), vehicle: saline
[4] = dose: 100.0 mg/kg/injection, schedule: Q01DX009 (ip), vehicle: Klucel (hydroxypropylcellulose) (HPC)
[5] = dose: 200.0 mg/kg/injection, schedule: Q01DX009 (ip), vehicle: Klucel (hydroxypropylcellulose) (HPC)
[6] = dose: 100.0 mg/kg/injection, schedule: Q01DX001 (ip), vehicle: carboxymethylcellulose (CMC)
[7] = dose: 200.0 mg/kg/injection, schedule: Q01DX001 (ip), vehicle: carboxymethylcellulose (CMC)
[8] = dose: 400.0 mg/kg/injection, schedule: Q01DX001 (ip), vehicle: carboxymethylcellulose (CMC)

Measured: T/C

CN(C)N=Nc1ccccc1C(N)=O
active: dose: 149.0 mg/kg/injection, schedule: Q01DX009 (ip), vehicle: saline with Tween-80 156 % of control | dose: 150.0 mg/kg/injection, schedule: Q01DX009 (ip), vehicle: other 150 % of control | dose: 221.0 mg/kg/injection, schedule: Q04DX003 (ip), vehicle: saline with Tween-80 150 % of control
inactive: dose: 20.0 mg/kg/injection, schedule: Q01DX009 (ip), vehicle: Klucel (hydroxypropylcellulose) (HPC) 110 % of control | dose: 30.0 mg/kg/injection, schedule: Q01DX009 (ip), vehicle: Klucel (hydroxypropylcellulose) (HPC) 110 % of control | dose: 31.25 mg/kg/injection, schedule: Q01DX009 (ip), vehicle: saline with Tween-80 108 % of control | dose: 37.25 mg/kg/injection, schedule: Q01DX009 (ip), vehicle: saline with Tween-80 112 % of control | dose: 37.5 mg/kg/injection, schedule: Q04DX003 (ip), vehicle: saline with Tween-80 108 % of control | dose: 45.0 mg/kg/injection, schedule: Q01DX009 (ip), vehicle: Klucel (hydroxypropylcellulose) (HPC) 119 % of control | dose: 55.25 mg/kg/injection, schedule: Q04DX003 (ip), vehicle: saline with Tween-80 104 % of control | dose: 62.5 mg/kg/injection, schedule: Q01DX001 (ip), vehicle: saline with Tween-80 111 % of control | dose: 67.0 mg/kg/injection, schedule: Q01DX009 (ip), vehicle: other 120 % of control | dose: 67.0 mg/kg/injection, schedule: Q01DX009 (ip), vehicle: saline with Tween-80 102 % of control | dose: 74.5 mg/kg/injection, schedule: Q01DX009 (ip), vehicle: saline with Tween-80 119 % of control | dose: 75.0 mg/kg/injection, schedule: Q01DX001 (ip), vehicle: other 107 % of control | dose: 75.0 mg/kg/injection, schedule: Q04DX003 (ip), vehicle: saline with Tween-80 116 % of control | dose: 100.0 mg/kg/injection, schedule: Q01DX009 (ip), vehicle: saline with Tween-80 109 % of control | dose: 110.5 mg/kg/injection, schedule: Q04DX003 (ip), vehicle: saline with Tween-80 122 % of control | dose: 125.0 mg/kg/injection, schedule: Q01DX001 (ip), vehicle: saline with Tween-80 110 % of control | dose: 125.0 mg/kg/injection, schedule: Q01DX009 (ip), vehicle: saline with Tween-80 86 % of control | dose: 150.0 mg/kg/injection, schedule: Q01DX001 (ip), vehicle: other 107 % of control | dose: 150.0 mg/kg/injection, schedule: Q01DX001 (ip), vehicle: saline with Tween-80 109 % of control | dose: 150.0 mg/kg/injection, schedule: Q01DX009 (ip), vehicle: saline with Tween-80 117 % of control | dose: 150.0 mg/kg/injection, schedule: Q04DX003 (ip), vehicle: saline with Tween-80 120 % of control | dose: 300.0 mg/kg/injection, schedule: Q01DX001 (ip), vehicle: other 123 % of control | dose: 300.0 mg/kg/injection, schedule: Q04DX003 (ip), vehicle: saline with Tween-80 106 % of control

Cc1cccc(CN)n1
inactive: [1] 98 % of control | [2] 98 % of control | dose: 100.0 mg/kg/injection, schedule: Q04DX003 (ip), vehicle: saline 104 % of control | [3] 97 % of control | dose: 200.0 mg/kg/injection, schedule: Q04DX003 (ip), vehicle: saline 104 % of control

CC(=O)O/N=C1\C(C)=[N+]([O-])[N+]([O-])=C1c1ccccc1
inactive: dose: 50.0 mg/kg/injection, schedule: Q01DX009 (ip), vehicle: Klucel (hydroxypropylcellulose) (HPC) 98 % of control | [4] 87 % of control | [5] 90 % of control

CCCCCCCCCC(C)(O)C#CC(C)(O)CCCCCCCCC (stereo unspecified)
inactive: dose: 50.0 mg/kg/injection, schedule: Q01DX001 (ip), vehicle: carboxymethylcellulose (CMC) 93 % of control | dose: 50.0 mg/kg/injection, schedule: Q04DX003 (ip), vehicle: carboxymethylcellulose (CMC) 91 % of control | [6] 95 % of control | dose: 100.0 mg/kg/injection, schedule: Q04DX003 (ip), vehicle: carboxymethylcellulose (CMC) 89 % of control | [7] 91 % of control | dose: 200.0 mg/kg/injection, schedule: Q04DX003 (ip), vehicle: carboxymethylcellulose (CMC) 89 % of control | [8] 100 % of control

CC(C)CCn1ccc(=O)[nH]c1=O
inactive: dose: 100.0 mg/kg/injection, schedule: Q01DX001 (ip), vehicle: Klucel (hydroxypropylcellulose) (HPC) 100 % of control | dose: 200.0 mg/kg/injection, schedule: Q01DX001 (ip), vehicle: Klucel (hydroxypropylcellulose) (HPC) 98 % of control | dose: 400.0 mg/kg/injection, schedule: Q01DX001 (ip), vehicle: Klucel (hydroxypropylcellulose) (HPC) 105 % of control

NC(=S)NN=C1CCCCC1
inactive: dose: 5.0 mg/kg/injection, schedule: Q01DX001 (ip), vehicle: carboxymethylcellulose (CMC) 96 % of control | dose: 10.0 mg/kg/injection, schedule: Q01DX001 (ip), vehicle: carboxymethylcellulose (CMC) 96 % of control | dose: 20.0 mg/kg/injection, schedule: Q01DX001 (ip), vehicle: carboxymethylcellulose (CMC) 107 % of control

CCC12CCC(=O)NC1Cc1[nH]c3c(OC)cccc3c1C2 (stereo unspecified)
inactive: dose: 100.0 mg/kg/injection, schedule: Q01DX009 (ip), vehicle: saline sonified 93 % of control | dose: 200.0 mg/kg/injection, schedule: Q01DX009 (ip), vehicle: saline sonified 91 % of control | dose: 400.0 mg/kg/injection, schedule: Q01DX009 (ip), vehicle: saline sonified 91 % of control

CSc1cccc(N2C(=O)CC(Sc3ccccc3N)C2=O)c1 (stereo unspecified)
inactive: [4] 90 % of control | [5] 95 % of control | dose: 400.0 mg/kg/injection, schedule: Q01DX009 (ip), vehicle: Klucel (hydroxypropylcellulose) (HPC) 98 % of control

O=[N+]([O-])c1ccc2ccc3ccccc3c2c1
inactive: [6] 97 % of control | [7] 95 % of control | [8] 97 % of control

CC(C)CNCc1ccc([N+](=O)[O-])cc1
inactive: dose: 75.0 mg/kg/injection, schedule: Q01DX001 (ip), vehicle: carboxymethylcellulose (CMC) 97 % of control | dose: 150.0 mg/kg/injection, schedule: Q01DX001 (ip), vehicle: carboxymethylcellulose (CMC) 95 % of control

COC(=O)c1ccc(N(C)CCC(=O)CN)cc1
inactive: dose: 100.0 mg/kg/injection, schedule: Q01DX001 (ip), vehicle: saline 98 % of control | dose: 200.0 mg/kg/injection, schedule: Q01DX001 (ip), vehicle: saline 101 % of control | dose: 400.0 mg/kg/injection, schedule: Q01DX001 (ip), vehicle: saline 104 % of control

Cn1ncc(=O)n(C)c1=O
inactive: [1] 97 % of control | [2] 97 % of control | [3] 93 % of control

COC1NC(=O)NC(=O)C1=[N+]=[N-] (stereo unspecified)
inactive: dose: 5.0 mg/kg/injection, schedule: Q04DX003 (ip), vehicle: saline with Tween-80 115 % of control | dose: 10.0 mg/kg/injection, schedule: Q04DX003 (ip), vehicle: saline with Tween-80 118 % of control
active: dose: 6.6 mg/kg/injection, schedule: Q01DX009 (ip), vehicle: saline with Tween-80 150 % of control | dose: 10.0 mg/kg/injection, schedule: Q01DX009 (ip), vehicle: saline with Tween-80 170 % of control | dose: 15.0 mg/kg/injection, schedule: Q01DX009 (ip), vehicle: saline with Tween-80 163 % of control

O=CN(O)CC(=O)O.[Ni]
inactive: dose: 6.25 mg/kg/injection, schedule: Q01DX009 (ip), vehicle: saline 105 % of control | dose: 12.5 mg/kg/injection, schedule: Q01DX009 (ip), vehicle: saline 109 % of control
